From PubChem BioAssay AID254 (DTP/NCI, 2004)
“And” between values parts separate entries of the source, which are not always exact repeats. Equal values may be shown once. Toxic doses and inconclusive results are not listed.

System: L1210 leukemia iv in BDF1 mice, survival T/C
Assay: NCI In Vivo Anticancer Drug Screen. Data for tumor model L1210 Leukemia (intravenous) in B6D2F1 (BDF1) mice
Conditions: higher = longer survival
Description: The antitumor activity of compounds was measured in mice bearing transplantable tumors. Survival or tumor size were measured and the results are expressed as the measurement made in the treated group (T) divided by the measurement made in the vehicle treated control group (C). The tumor model used in this assay is L1210 Leukemia (intravenous) in B6D2F1 (BDF1) mice

[1] = endpoint: mean survival time, dose: 48.0 mg/kg/injection, schedule: Q01DX001 (ip), vehicle: other
[2] = endpoint: mean survival time, dose: 24.0 mg/kg/injection, schedule: Q01DX001 (ip), vehicle: other

## CN(Cc1cnc2nc(N)nc(N)c2n1)c1ccc(C(=O)N[C@@H](CCC(=O)O)C(=O)O)cc1
endpoint: mean survival time, dose: 0.3 mg/kg/injection, schedule: Q01DX008 (ip), vehicle: other
  T/C: 110 % of control
endpoint: mean survival time, dose: 0.3 mg/kg/injection, schedule: Q01HX008 (ip), vehicle: other
  T/C: 121 % of control
endpoint: mean survival time, dose: 0.3 mg/kg/injection, schedule: Q03HX008 (ip), vehicle: other
  T/C: 118 % of control
endpoint: mean survival time, dose: 0.3 mg/kg/injection, schedule: Q06HX008 (ip), vehicle: other
  T/C: 116 % of control
endpoint: mean survival time, dose: 0.3 mg/kg/injection, schedule: Q12HX008 (ip), vehicle: other
  T/C: 115 % of control
endpoint: mean survival time, dose: 0.4 mg/kg/injection, schedule: Q01DX008 (ip), vehicle: other
  T/C: 121 % of control
endpoint: mean survival time, dose: 0.4 mg/kg/injection, schedule: Q01HX008 (ip), vehicle: other
  T/C: 119 % of control
endpoint: mean survival time, dose: 0.4 mg/kg/injection, schedule: Q03HX008 (ip), vehicle: other
  T/C: 119 % of control
endpoint: mean survival time, dose: 0.4 mg/kg/injection, schedule: Q06HX008 (ip), vehicle: other
  T/C: 122 % of control
endpoint: mean survival time, dose: 0.4 mg/kg/injection, schedule: Q12HX008 (ip), vehicle: other
  T/C: 115 % of control
endpoint: mean survival time, dose: 2.4 mg/kg/injection, schedule: Q01DX001 (ip), vehicle: other
  T/C: 122 % of control
endpoint: mean survival time, dose: 3.2 mg/kg/injection, schedule: Q01DX001 (ip), vehicle: other
  T/C: 119 % of control

## O=c1[nH]cc(F)c(=O)[nH]1
endpoint: mean survival time, dose: 10.0 mg/kg/injection, schedule: Q01DX005 (ip), vehicle: saline
  T/C: 109 % of control
endpoint: mean survival time, dose: 20.0 mg/kg/injection, schedule: Q01DX005 (ip), vehicle: saline
  T/C: 120 % of control
endpoint: mean survival time, dose: 40.0 mg/kg/injection, schedule: Q01DX005 (ip), vehicle: saline
  T/C: 152 % of control
endpoint: mean survival time, dose: 50.0 mg/kg/injection, schedule: Q01DX005 (ip), vehicle: saline
  T/C: 183 % of control
endpoint: mean survival time, dose: 60.0 mg/kg/injection, schedule: Q01DX005 (ip), vehicle: saline
  T/C: 182 % of control and 186 % of control
endpoint: mean survival time, dose: 120.0 mg/kg/injection, schedule: Q01DX001 (ip), vehicle: water
  T/C: 150 % of control
endpoint: mean survival time, dose: 150.0 mg/kg/injection, schedule: Q01DX001 (ip), vehicle: water
  T/C: 154 % of control
endpoint: mean survival time, dose: 180.0 mg/kg/injection, schedule: Q01DX001 (ip), vehicle: water
  T/C: 180 % of control

## O=NN(CCCl)C(=O)NC1CCC(NC(=O)N(CCCl)N=O)CC1 (stereo unspecified)
endpoint: mean survival time, dose: 23.0 mg/kg/injection, schedule: Q01DX001 (ip), vehicle: other
  T/C: 157 % of control and 193 % of control
endpoint: mean survival time, dose: 38.0 mg/kg/injection, schedule: Q01DX001 (oral), vehicle: other
  T/C: 124 % of control
endpoint: mean survival time, dose: 44.0 mg/kg/injection, schedule: Q01DX001 (ip), vehicle: saline with Tween-80
  T/C: 169 % of control
[1]
  T/C: 450 % of control and 218 % of control
endpoint: mean survival time, dose: 67.0 mg/kg/injection, schedule: Q01DX001 (ip), vehicle: saline with Tween-80
  T/C: 178 % of control and 169 % of control
endpoint: mean survival time, dose: 84.0 mg/kg/injection, schedule: Q01DX001 (oral), vehicle: other
  T/C: 150 % of control and 165 % of control
endpoint: mean survival time, dose: 96.0 mg/kg/injection, schedule: Q01DX001 (ip), vehicle: other
  T/C: 375 % of control and 594 % of control
endpoint: mean survival time, dose: 100.0 mg/kg/injection, schedule: Q01DX001 (ip), vehicle: saline with Tween-80
  T/C: 246 % of control and 238 % of control
endpoint: mean survival time, dose: 150.0 mg/kg/injection, schedule: Q01DX001 (ip), vehicle: saline with Tween-80
  T/C: 255 % of control and 263 % of control
endpoint: mean survival time, dose: 171.0 mg/kg/injection, schedule: Q01DX001 (oral), vehicle: other
  T/C: 177 % of control and 214 % of control
endpoint: mean survival time, dose: 191.0 mg/kg/injection, schedule: Q01DX001 (ip), vehicle: other
  T/C: 475 % of control and 531 % of control
endpoint: mean survival time, dose: 225.0 mg/kg/injection, schedule: Q01DX001 (ip), vehicle: saline with Tween-80
  T/C: 438 % of control and 328 % of control
endpoint: mean survival time, dose: 319.0 mg/kg/injection, schedule: Q01DX001 (oral), vehicle: other
  T/C: 453 % of control and 274 % of control
endpoint: mean survival time, dose: 337.0 mg/kg/injection, schedule: Q01DX001 (ip), vehicle: saline with Tween-80
  T/C: 507 % of control
endpoint: mean survival time, dose: 383.0 mg/kg/injection, schedule: Q01DX001 (ip), vehicle: other
  T/C: 340 % of control and 381 % of control
endpoint: mean survival time, dose: 638.0 mg/kg/injection, schedule: Q01DX001 (oral), vehicle: other
  T/C: 478 % of control and 554 % of control

## CC(=O)OC1CCC(NC(=O)N(CCF)N=O)CC1 (stereo unspecified)
endpoint: mean survival time, dose: 16.0 mg/kg/injection, schedule: Q01DX001 (ip), vehicle: other
  T/C: 175 % of control
[2]
  T/C: 248 % of control
endpoint: mean survival time, dose: 32.0 mg/kg/injection, schedule: Q01DX001 (oral), vehicle: other
  T/C: 441 % of control
endpoint: mean survival time, dose: 36.0 mg/kg/injection, schedule: Q01DX001 (ip), vehicle: other
  T/C: 473 % of control

## O=NN(CCF)C(=O)NC1CCS(=O)(=O)CC1
endpoint: mean survival time, dose: 4.8 mg/kg/injection, schedule: Q01DX001 (oral), vehicle: other
  T/C: 185 % of control and 225 % of control
endpoint: mean survival time, dose: 6.0 mg/kg/injection, schedule: Q01DX001 (ip), vehicle: other
  T/C: 190 % of control and 213 % of control
endpoint: mean survival time, dose: 11.0 mg/kg/injection, schedule: Q01DX001 (oral), vehicle: other
  T/C: 429 % of control and 504 % of control
endpoint: mean survival time, dose: 12.0 mg/kg/injection, schedule: Q01DX001 (ip), vehicle: other
  T/C: 365 % of control and 518 % of control
endpoint: mean survival time, dose: 21.0 mg/kg/injection, schedule: Q01DX001 (oral), vehicle: other
  T/C: 562 % of control and 817 % of control
[2]
  T/C: 620 % of control and 688 % of control
endpoint: mean survival time, dose: 40.0 mg/kg/injection, schedule: Q01DX001 (oral), vehicle: other
  T/C: 436 % of control and 569 % of control
[1]
  T/C: 517 % of control and 590 % of control

## CCCCc1ccc2nc(NC(=O)OC)[nH]c2c1
endpoint: median survival time, dose: 30.0 mg/kg/injection, schedule: Q04DX003 (iv), vehicle: saline
  T/C: 100 % of control
endpoint: median survival time, dose: 40.0 mg/kg/injection, schedule: Q04DX003 (iv), vehicle: saline
  T/C: 110 % of control
endpoint: median survival time, dose: 50.0 mg/kg/injection, schedule: Q04DX003 (iv), vehicle: saline
  T/C: 113 % of control

## O=NN(CCCl)C(=O)NC1C2CC3CC(C2)CC1C3 (stereo unspecified)
endpoint: mean survival time, dose: 22.0 mg/kg/injection, schedule: Q01DX001 (ip), vehicle: other
  T/C: 107 % of control and 118 % of control
endpoint: mean survival time, dose: 45.0 mg/kg/injection, schedule: Q01DX001 (ip), vehicle: other
  T/C: 160 % of control
endpoint: mean survival time, dose: 91.0 mg/kg/injection, schedule: Q01DX001 (ip), vehicle: other
  T/C: 156 % of control
endpoint: mean survival time, dose: 181.0 mg/kg/injection, schedule: Q01DX001 (ip), vehicle: other
  T/C: 166 % of control and 229 % of control
endpoint: mean survival time, dose: 362.0 mg/kg/injection, schedule: Q01DX001 (ip), vehicle: other
  T/C: 440 % of control and 514 % of control
